# Like-named read-outs stand apart in the source and are kept apart here. Ends that are not written are not given here.
# Tests used:
# ERK2 = experiment: ELISA assay for detection of MAP kinase binding to biotinylated peptide; details: result in words
# Procedure: (§1) An assay was developed for detecting the ability of MAP kinases to bind with a peptide agent in solution.
# (§2) Briefly, the MAP kinase is added to an eppendorf tube containing a biotinylated test peptide in phosphate buffered saline (PBS) at pH 7.4. The mixture is allowed to stand at room temperature for 10 minutes with occasional mixing by gentle inversion of the tube. The MAP kinase/test peptide mixture is then transferred to a pre-washed (PBS×3×100 μl) 96-well streptavidin coated ELISA microtitre plate and allowed to stand for 60 minutes at room temperature. At the end of the 60 minute period, the MAP kinase/test peptide mixture is tipped from the ELISA plate and the wells washed 3 times with wash solution (PBS+0.05% Tween−20).
# (§3) Primary antibody detection for the MAP kinase is then added to the test wells and the ELISA plate is allowed to stand for a further 30 minutes at room temperature before the antibody solution is decanted from the plate and the wells again washed with the wash solution. Optimal dilutions of primary detection antibody are pre-determined for each target MAP kinase. Alkaline-phosphatase or other enzyme conjugated anti-primary species antibody at a dilution of 1:2000 v/v is subsequently added to the wells and the microtitre plate is allowed to stand for another 30 minutes at room temperature, before the washing step is repeated and phosphatase detection reagent is added to the wells and the colour reaction allowed to develop. The wells are read at 405 nm using a microplate reader (Bio-Rad). Controls comprise non-biotinylated peptide and biotinylated peptide alone
# [1] = system: HT29 colon cancer xenografts; experiment: In vivo tumour growth of HT29 colon cancer xenografts; parameters: species or system Balb/c athymic mice
# Procedure: Balb/c female athymic mice (8 weeks of age obtained from the Animal Resource Centre, Perth, Western Australia) were maintained under pathogen-free conditions and fed standard mouse chow and water ad lib. The mice were divided into groups of ten each. Mice in different groups were marked by ear notching. Briefly, the mice were anaesthetised using isoflurothane by inhalation and their ears marked using a surgical punch. After a recovery period of 48 hours, the mice in each group were injected with 1×10^6 HT29 colon cancer cells in standard DMEM culture medium subcutaneously dorsally behind the right shoulder using a 21-gauge needle. Animal weights and tumour sizes (breadth and length measured with callipers) were recorded weekly. Mice were sacrificed by CO2 asphyxiation and tumour mass excised for measurement.
# Mice were injected twice weekly for four weeks commencing 10 days after tumour cell inoculation with DMEM, signal peptide ([…]) (designated “carrier”) (SEQ ID No: 1) or the […] (IK-1) (SEQ ID No: 19) peptide agent, and tumour growth was compared to an untreated control group.
# Colon cancer inhibition by peptide […] (IK2P) (SEQ ID No: 18) administered intravenously to colon tumour bearing Balb/c athymic mice as per the protocol described above, is shown in FIG. 20. Colon tumour xenografts were achieved by injection of 1×10^6 HT29 colon cancer cells as above. […]
# HUVEC cells = experiment: Cell proliferation assay using MTT; type: cell-based, human
# Procedure: The ability of the 10(4) peptide […] (SEQ ID No: 7) linked to the signal peptide […] (SEQ ID No: 1) to inhibit the proliferation of the above cell lines was assessed using the cell proliferation assay described in Example 2.1.
# HT29 colon cancer cells [2] = experiment: Annexin-V-FITC FACScan apoptosis analysis; type: cell-based; details: peptide 16 hours, staurosporine 1 μM 1-2 hours
# Procedure: (§4) The killing of HT29 cancer cells compared to normal keratinocytes, human umbilical vein epithelial cells (HUVECs) and skin fibroblasts by the peptide […] (IK2) (SEQ ID No: 16) was assessed. Briefly, cells were recovered by trypsinisation and resuspended into fresh culture medium. Cell viability was determined (0.4% Trypan Blue in phosphate buffered saline (PBS) 1:1 v/v), and 0.75×10^6 viable cells were passaged into a 25 cm^2 tissue culture flask then cultured for 24 hours at 37° C., 5% CO2 in air. Immediately prior to the addition of the IK2 peptide, culture media was removed by decanting and replaced with fresh media (2.0 mls minus volume addition of IK2 peptide). The treated cells were then cultured for 16 hours.
# (§5) Cells were prepared as above for the positive control. Staurosporine (Sigma #S5921) was added to the culture media to a final concentration of 1 μM and the cells exposed to the apoptosis inducer for a maximum of 1-2 hours. For a negative control, vehicle alone (normal saline) was added to cell culture media.
# Apoptotic cells were detected by FACScan analysis utilising Annexin-V-FITC (Sigma kit #A2214) to indicate apoptosis. For the analysis, cells were recovered by trypsinisation as above, and resuspended (˜1×10^6 cells/ml) into 1× binding buffer (Sigma #B9796). […] Cells were incubated at room temperature for 10 minutes in the dark and fluorescence determined by flow cytometer. […]
# HUVEC = experiment: Annexin-V-FITC FACScan apoptosis analysis; details: FIG. 23
# Procedure: as §4, §5
# (§6) Apoptotic cells were detected by FACScan analysis utilising Annexin-V-FITC (Sigma kit #A2214) to indicate apoptosis. For the analysis, cells were recovered by trypsinisation as above, and resuspended (˜1×10^6 cells/ml) into 1× binding buffer (Sigma #B9796). 500 μl of cell suspension was then aliquoted into a 10 ml plastic test tube, prior to the addition of 5 μl of Annexin-V FITC and 10 μl of propidium iodide (Sigma #P2667). Cells were incubated at room temperature for 10 minutes in the dark and fluorescence determined by flow cytometer. Living cells are not stained by either Annexin-V-FITC or propidium iodide, while early apoptosis is indicated by staining with Annexin-V-FITC only and necrotic cells are stained by both Annexin-V-FITC and propidium iodide.
# [3] = system: normal keratinocytes (KC); experiment: Annexin-V-FITC FACScan apoptosis analysis; details: FIG. 23
# Procedure: as §4, §5, §6
# skin fibroblasts (SkinF) = experiment: Annexin-V-FITC FACScan apoptosis analysis; details: skin fibroblast (SkinF), FIG. 23
# Procedure: as §4, §5, §6
# HT29 colon cancer cells [4] = experiment: Cell proliferation assay using MTT; details: for inhibition of proliferation (in words): relative to untreated control cells
# Procedure: (§7) An assay using the substrate methylthiazoletetrazolium (MTT) was utilised to determine the inhibitory affect of peptide agents on cancer cell proliferation. MTT substrate (CAT No. M-2128, Sigma) is cleaved in growing cells to yield a water insoluble salt. After solubilisation of the salt, a coloured product is produced that allows quantitation of the proliferative activity of the cultured cells. To prepare the MTT solution for use in the assay, 100 mg of MTT is mixed with 20 ml of PBS at pH 7.4. The resulting solution is filter sterilised (0.2 μM syringe filter) and stored at 4° C. protected from light until use.
# (§8) Cells from the colon cancer cell line HT29 were seeded into wells of a 96-well microlitre plate in Dulbecco's Modified Eagle's Medium (DMEM) supplemented with 10% foetal bovine serum, glutamine, Hepes, and antibiotics at a concentration of 2,000 cells/100 μl and cultured for 24 hours in 5% CO2 in air at 37° C. After the 24 hour incubation period the test agent (solubilised in complete DMEM) is added to test wells to a final media volume of 200 μl and the microtitre plate is incubated for a further 48 to 72 hour period.
# (§9) A 20 μl volume of the MTT solution prepared as above is then added to the test wells and the microtitre plate incubated for further 3 hours in 5% CO2 in air at 37° C. The plate is subsequently centrifuged for 5 minutes at 2,000 rpm in a microplate carrier. The supernatant is then removed from the wells using a multichannel pipette leaving MTT crystals in the wells.
# (§10) To the wells is then added 150 μl of 6:1 v/v DMSO/glycine solution (0.1 M glycine and 0.1 M NaCl adjusted to pH 10.5 using NaOH) and the MTT crystals are dissolved by gently vortexing the microtitre plate. Absorbance is read at 550 nm using a microtitre plate reader.
# cancer cell lines = experiment: Proliferation of cancer cell lines with signal peptide alone; type: cell-based; details: any cancer cell lines tested, data not shown
# HT29 colon cancer cells [5] = system: HT29 colon cancer cells
# Procedure: as §7, §8, §9, §10
# cytoplasmic domain of β6 = target: T1, cytoplasmic domain of β6 (Homo sapiens, UniProt P18564); experiment: ELISA binding of MAP kinase fragments to the cytoplasmic domain of β6; details: FIG. 1 and FIG. 4
# T1 sequence (P18564 737-788): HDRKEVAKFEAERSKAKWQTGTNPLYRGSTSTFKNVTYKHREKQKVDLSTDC
# Procedure: Primary antibody detection for the MAP kinase is then added to the test wells and the ELISA plate is allowed to stand for a further 30 minutes at room temperature before the antibody solution is decanted from the plate and the wells again washed with the wash solution. Optimal dilutions of primary detection antibody are pre-determined for each target MAP kinase. […] The wells are read at 405 nm using a microplate reader (Bio-Rad). […]
# The binding of various MAP kinases to the cytoplasmic domain of β6 was tested using the assay described in Example 1.1. […] (SEQ ID No: 26), and the binding interaction detected using the anti-β6 antibody R6G9. […]
# ERK1 = target: T2, ERK1 (Homo sapiens, UniProt P27361); experiment: ELISA assay for detection of MAP kinase binding to biotinylated peptide; details: FIG. 2
# T2 construct: GST (N, cleaved yes); made in house
# T2 sequence (P27361 whole entry, species assumed): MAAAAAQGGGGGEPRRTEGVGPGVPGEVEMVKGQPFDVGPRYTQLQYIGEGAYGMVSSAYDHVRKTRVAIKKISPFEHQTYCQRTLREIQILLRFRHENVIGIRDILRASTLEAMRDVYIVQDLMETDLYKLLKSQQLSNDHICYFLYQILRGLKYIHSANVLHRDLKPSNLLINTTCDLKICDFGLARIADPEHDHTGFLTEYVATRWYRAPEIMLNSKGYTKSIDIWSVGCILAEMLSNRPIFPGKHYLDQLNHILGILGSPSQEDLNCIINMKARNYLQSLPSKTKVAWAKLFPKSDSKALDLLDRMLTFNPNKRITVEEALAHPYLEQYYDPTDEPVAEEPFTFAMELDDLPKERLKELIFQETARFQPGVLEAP
# Procedure: as §1, §2, §3
molecule,measurement,setting,value
RSRARNPLYR,binding to ERK2,ERK2,still bound by ERK2
"AAVALLPAVLLALLA [nfkb, reference compound]",mouse weight at day 28,"[1]; intra-tumoural injections, day 28 relative to time 0 / control group, FIG. 18B",marked weight loss
"O=c1[nH]cc(F)c(=O)[nH]1 [5-FU, 5-Fluorouracil, reference compound]",impact on proliferation of normal HUVEC cells,HUVEC cells,toxicity
AAVALLPAVLLALLARSKAKWQTGTNPLYR [IK-1],impact on proliferation of normal HUVEC cells,"HUVEC cells; HUVEC, MTT",essentially no impact
same,mouse weight at day 28,"[1]; mouse, in vivo",Substantially no difference
RSKAKNPLYR [10(4)],binding to ERK2,ERK2,binds to ERK2
same,binding to ERK2,ERK2; listed as RSKAKNPLYR,still bound by ERK2
"CN[C@@H]1C[C@H]2O[C@@](C)([C@@H]1OC)n1c3ccccc3c3c4c(c5c6ccccc6n2c5c31)C(=O)NC4 [staurosporin, Staurosporine, reference compound]",induction of apoptosis,HT29 colon cancer cells [2],apoptosis was induced
same,induction of apoptosis,HUVEC,induced apoptosis
same,induction of apoptosis,[3],induced apoptosis
same,induction of apoptosis,skin fibroblasts (SkinF),induced apoptosis
AAVALLPAVLLALLARSKAKNPLYR (also: acetate salt) [nfkb10(4)acetate],inhibition of proliferation at the highest concentration,"HT29 colon cancer cells [4]; HT29, MTT, highest concentration of peptide employed",total inhibition
"AAVALLPAVLLALLAP [nfkbp, K-FGF signal peptide]",effect of signal peptide alone on proliferation,cancer cell lines,essentially no effect
KEKLKNPLFK [β2 (10(4)],binding to ERK2,ERK2,bound by ERK2
AAVALLPAVLLALLAPRSKAKNPLYR [nfkb10(4)p],impact on proliferation of normal HUVEC cells,HUVEC cells,relatively minimal
same,inhibition of proliferative response compared to 5-FU,HT29 colon cancer cells [5],more effective
"GRKKRRQRRRPQCG [TAT-G, reference compound]",toxicity of carrier peptide alone,"HT29 colon cancer cells [4]; HT29, FIG. 8 and FIG. 9",some toxicity
AAVALLPAVLLALLARSKAKNPLYR [IK2],induction of apoptosis,HUVEC,essentially no apoptosis
same,induction of apoptosis,[3],essentially no apoptosis
same,induction of apoptosis,skin fibroblasts (SkinF),essentially no apoptosis
AAVALLPAVLLALLARSRARNPLYR [nf-b5-10-4],degree of inhibition compared with nf-b5-frag 5,"HT29 colon cancer cells [4]; HT29, MTT, FIG. 14G",greater degree of inhibition
same,inhibition of proliferation (in words),"HT29 colon cancer cells [4]; HT29, MTT",inhibited proliferation
Alkyl(4): stearic acid coupled to the RSKAKNPLYR peptide (also: stearic acid coupled (site not given here)),inhibition of proliferation (in words),"HT29 colon cancer cells [4]; HT29, MTT",effective
HRDLKPSNLAVNEDCELKILDFGLAR [p38 MAP kinase fragment],binding to the cytoplasmic domain of β6,cytoplasmic domain of β6,bound
VTVLALGALAGVGVGRSKAKWQTGTNPLYR [Frag 5B3],proliferation of the cells relative to control cells,"HT29 colon cancer cells [4]; HT29, MTT, higher concentration of the peptides used, FIG. 5",about 37%
RSKAKWQTGTNPLYR,binding to ERK1,ERK1,bind
same,binding to ERK2,ERK2,bind
RARAKNPLYK,binding to ERK2,ERK2,still bound by ERK2
